{"source": "patent US20210340572A1", "about": "“HIGH-CONTENT IMAGING OF MICROFLUIDIC DEVICES” (EMULATE, Inc., priority 2019, published 2021)", "key": {"[1]": {"system": "microfluidic devices seeded with human liver cells", "experiment": "Albumin secretion, microfluidic devices seeded with human liver cells", "format": "cell-based", "description": "Prior to cell seeding, microfluidic devices, in this case S-1 Chips (Emulate, Inc. Boston, Mass., USA), were functionalized using Emulate's proprietary protocols and reagents (ERT™), including those described herein. After surface functionalization, both channels of the microfluidic device were coated with species-specific extracellular matrices (ECM). For the human bound microfluidic device, a mixture of collagen type I (Corning, Corning, N.Y., USA) and fibronectin, e.g. bovine, (Gibco) was used; for the rat bound microfluidic devices a mixture of collagen type IV, e.g. human placenta, (Sigma-Aldrich, St. Louis, Mo., USA) and fibronectin (Gibco) was used; for the dog bound microfluidic devices a mixture of collagen I (Corning), collagen type IV (Sigma-Aldrich), and fibronectin (Gibco) was used. […] For the dual-cell culture model (hepatocytes and endothelial cells), the LSECs were seeded at a concentration of 2-4 million cells/mL in the lower vascular channel. […] After cell seeding, the upper channel of the microfluidic device was maintained in William's E Medium (WEM) containing Glutamax (Gibco), ITS+(Corning), dexamethasone (Sigma-Aldrich), ascorbic acid (Sigma-Aldrich), fetal bovine serum (FBS) (Sigma-Aldrich), and Penicillin/Streptomycin (Sigma-Aldrich). The vascular channel of the microfluidic device was maintained with species-specific endothelial media (Emulate, Inc.). Two days after seeding, the microfluidic devices were connected to the Human Emulation System™ (Emulate, Inc.), as described in part herein, and both of the microfluidic device channels were perfused at 30 μL/hr to provide a continuous supply of fresh media for the duration of the experiments. Albumin secretion from the upper channel was quantified using ELISA kits for human, rat, and dog models effluent samples (human and rat: Abcam; dog: Immunology Consultants Laboratory, Inc., Portland, Oreg., USA) and the assays were performed according to the protocol provided by each vendor."}, "[2]": {"system": "microfluidic devices seeded with human liver cells", "experiment": "APAP metabolite quantification by LC-MS in human chips", "format": "in vitro ADME", "conditions": "daily 3 mM for 20 days, flow 10 μL/hr", "description": "After APAP exposure to microfluidic devices seeded with human liver cells, effluent metabolite levels were quantified using LC-MS analysis. […] APAP-Glucuronide (APAP-Glu), the primary metabolite of APAP, was not quantified using a standard curve. Rather, the LC-MS peak area of APAP-Glu was reported corresponding to each sample."}, "[3]": {"experiment": "Phase I dose-escalating study, clinical chemistry (ALT, AST)", "format": "in vivo, human", "conditions": "Phase I clinical trial", "method": "A double-blind, placebo-controlled, randomized, dose-escalating, sequential group design was conducted in 2 Parts. Subjects received daily doses of JNJ-28312141 or placebo for a total of 2 weeks (the first dose on Day 1 and then daily on Days 3 to 14). Part 1 included 5 cohorts of healthy male or female subjects. In Part 2 of the study, 2 cohorts of postmenopausal women (PMW) were enrolled. Within each cohort of 12 subjects, 9 subjects were randomized to JNJ-1, and 3 subjects were randomized to placebo. Dose escalation only occurred after the Sponsor and the Investigator had performed a satisfactory review of the preliminary safety data including those obtained on the post-study follow up visit (anytime between Days 30 to 32), and of the drug concentration and PK data (if available) at the current dose level. In addition to efficacy endpoints, and pharmacokinetics, an assessment of safety included measurement of clinical chemistry parameters, including ALT and AST."}, "[4]": {"experiment": "Repeat-dose toxicity study of JNJ-1 in rats", "format": "in vivo", "conditions": "rat study", "method": "(§1) JNJ-1, prepared in purified water, was administered once daily for 14 days to 5 male and 5 female rats at doses of 5, 25, and 125 mg/kg. In a separate study, JNJ-1, also in purified water, was administered once daily for 4 weeks to 5 male and 5 female dogs at 0 or 40 mg/kg/day, and to 3 males and 3 female dogs at 2 or 10 mg/kg/day. Mortality, clinical observations, body weight, food consumption, clinical pathology, gross necropsy and microscopic examination of selected tissues, and toxicokinetics were evaluated. Rats or dogs were fasted overnight prior to blood collection for measurement of clinical pathology parameters (including AST and ALT) at the end of 14 days (rats) or 4 weeks (dogs) of dosing. Histology slides (hematoxylin and eosin staining and Mason's Trichrome staining) of the liver tissues were prepared and evaluated microscopically. The quantification of JNJ-1 was conducted using a qualified liquid chromatographic-triple quadrupole mass spectrometric (LC-MS/MS) procedure."}, "[5]": {"experiment": "Repeat-dose toxicity study of JNJ-1 in dogs", "format": "in vivo", "conditions": "dog study", "method": "as §1"}, "Kupffer cells": {"system": "Kupffer cells", "experiment": "Kupffer cell count (CD68-positive cells) in human chips", "format": "cell-based", "conditions": "human quadruple-cell chips", "method": "Microfluidic devices seeded with liver cells and static sandwich plate cultures were fixed with 4% paraformaldehyde for 15 minutes at room temperature, washed with PBS, and permeabilized (saponin 1% with 10% serum in PBS). Blocking and incubation with the primary antibodies (overnight in PBS containing 1% BSA or PBS containing 10% serum and 1% BSA) was followed by a two-hour incubation with secondary antibodies (Cell Signaling, Danvers, Mass., USA) in the same blocking buffer. Immunostaining was performed with specific primary antibodies (anti-MRP2, anti-stabilin-1, anti-BSEP, anti-α-SMA, anti-CD68; Abcam, Cambridge, Mass., USA) and images were acquired with either an Olympus fluorescence microscope (IX83) or Zeiss confocal microscope (AxiovertZ1 LSM880).\nThe number of CD68- or α-SMA-positive cells in the vascular channel in each group was counted in each field of view ([…]) and quantified."}, "[6]": {"system": "microfluidic devices seeded with human liver cells", "experiment": "Cytokine release (IL-6, MCP-1, IP-10) from the vascular channel of human chips", "format": "cell-based", "conditions": "human quadruple-cell chips", "method": "Cytokines: Release of IL-6, MCP-1, and IP-10 from the vascular channel was quantified using U-PLEX biomarker human assays (Meso Scale Diagnostics, Rockville, Md., USA) and the assays were performed according to the protocol provided by the vendor."}, "[7]": {"system": "microfluidic devices seeded with dog liver cells", "experiment": "Albumin secretion, microfluidic devices seeded with dog liver cells", "format": "cell-based", "conditions": "Canis lupus familiaris, 168 h; dual-cell dog chips, daily administration 1-100 μM, 7 days; read-out: IC50, decrease in albumin secretion", "description": "(§2) Prior to cell seeding, microfluidic devices, in this case S-1 Chips (Emulate, Inc. Boston, Mass., USA), were functionalized using Emulate's proprietary protocols and reagents (ERT™), including those described herein. After surface functionalization, both channels of the microfluidic device were coated with species-specific extracellular matrices (ECM). For the human bound microfluidic device, a mixture of collagen type I (Corning, Corning, N.Y., USA) and fibronectin, e.g. bovine, (Gibco) was used; for the rat bound microfluidic devices a mixture of collagen type IV, e.g. human placenta, (Sigma-Aldrich, St. Louis, Mo., USA) and fibronectin (Gibco) was used; for the dog bound microfluidic devices a mixture of collagen I (Corning), collagen type IV (Sigma-Aldrich), and fibronectin (Gibco) was used. […] For the dual-cell culture model (hepatocytes and endothelial cells), the LSECs were seeded at a concentration of 2-4 million cells/mL in the lower vascular channel. […] Albumin secretion from the upper channel was quantified using ELISA kits for human, rat, and dog models effluent samples (human and rat: Abcam; dog: Immunology Consultants Laboratory, Inc., Portland, Oreg., USA) and the assays were performed according to the protocol provided by each vendor."}, "[8]": {"system": "microfluidic devices seeded with rat liver cells", "experiment": "Albumin secretion / hepatocyte function, microfluidic devices seeded with rat liver cells", "format": "cell-based", "conditions": "Hepatocyte, 168 h; dual-cell rat chips, daily administration 1-100 μM, 7 days; read-out: IC50, decrease in albumin secretion", "description": "as §2"}, "BSEP": {"target": "T1, BSEP (Homo sapiens, UniProt O95342)", "T1 construct": "Primary rat, dog or human hepatocytes were cultured in the upper parenchymal channel; endogenous in cells; host or cells: primary human hepatocytes in a microfluidic Liver-Chip, co-cultured with LSECs", "T1 sequence (O95342 whole entry)": "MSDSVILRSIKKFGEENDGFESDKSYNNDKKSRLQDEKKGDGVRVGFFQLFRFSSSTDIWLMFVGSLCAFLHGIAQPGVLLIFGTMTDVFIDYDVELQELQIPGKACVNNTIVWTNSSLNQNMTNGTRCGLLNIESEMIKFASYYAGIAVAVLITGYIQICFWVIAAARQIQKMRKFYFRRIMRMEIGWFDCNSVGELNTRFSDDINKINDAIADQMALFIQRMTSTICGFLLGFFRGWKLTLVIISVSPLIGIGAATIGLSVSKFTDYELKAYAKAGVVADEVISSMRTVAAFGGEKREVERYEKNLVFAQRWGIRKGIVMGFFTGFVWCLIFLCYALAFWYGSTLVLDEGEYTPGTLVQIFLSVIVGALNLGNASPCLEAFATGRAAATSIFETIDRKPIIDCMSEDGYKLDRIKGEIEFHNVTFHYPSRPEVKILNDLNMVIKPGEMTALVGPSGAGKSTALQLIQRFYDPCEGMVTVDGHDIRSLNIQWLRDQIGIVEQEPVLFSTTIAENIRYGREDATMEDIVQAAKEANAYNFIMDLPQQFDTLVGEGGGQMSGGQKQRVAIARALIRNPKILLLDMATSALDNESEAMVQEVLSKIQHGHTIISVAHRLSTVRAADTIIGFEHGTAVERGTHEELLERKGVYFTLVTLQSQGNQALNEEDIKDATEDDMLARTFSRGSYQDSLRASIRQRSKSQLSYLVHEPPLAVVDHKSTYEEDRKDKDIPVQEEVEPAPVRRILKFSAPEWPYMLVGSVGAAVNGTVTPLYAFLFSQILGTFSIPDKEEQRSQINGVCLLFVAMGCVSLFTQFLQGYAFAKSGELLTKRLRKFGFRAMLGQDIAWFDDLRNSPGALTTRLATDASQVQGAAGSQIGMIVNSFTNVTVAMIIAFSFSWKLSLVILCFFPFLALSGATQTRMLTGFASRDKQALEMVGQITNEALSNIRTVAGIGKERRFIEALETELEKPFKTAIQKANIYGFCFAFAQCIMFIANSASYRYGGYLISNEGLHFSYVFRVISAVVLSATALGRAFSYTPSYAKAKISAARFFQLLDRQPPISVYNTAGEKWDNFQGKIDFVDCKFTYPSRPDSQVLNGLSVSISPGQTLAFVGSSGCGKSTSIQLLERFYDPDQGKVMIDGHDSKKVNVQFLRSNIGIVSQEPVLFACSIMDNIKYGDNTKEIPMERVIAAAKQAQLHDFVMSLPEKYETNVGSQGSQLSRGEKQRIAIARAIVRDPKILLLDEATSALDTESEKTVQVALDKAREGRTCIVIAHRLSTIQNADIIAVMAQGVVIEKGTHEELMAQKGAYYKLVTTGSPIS", "experiment": "CLF efflux (BSEP activity) in human hepatocytes on chip", "format": "cell-based", "conditions": "30 μM", "source_text": "Microfluidic devices seeded with liver cells were stained in the upper channel with 5(6)-Carboxy-2′,7′-dichlorofluorescein diacetate (CDFDA) (ThermoFisher) to visualize bile canaliculi and MRP2 activity, cholyl-lysyl-fluorescein (CLF) (Corning) to visualize bile canaliculi and BSEP activity, Nile red (ThermoFisher) or AdipoRed (Lonza) to visualize lipid droplet accumulation, Tetramethylrhodamine, methyl ester (TMRM) (ThermoFisher) to visualize active mitochondria, and CellROX® (ThermoFisher) to visualize cellular oxidative stress. Each staining solution was prepared in blank medium or compound dosing medium and added to the upper channel, incubated for 15 minutes at 37° C., and washed three times with medium. The stained microfluidic devices were imaged using a specific filter, and were de-blurred with Olympus cellSens software. Using ImageJ-Fiji, the fluorescent channel images were histogram adjusted to remove background, followed by fluorescence quantification using the Integrated Density calculation function.\nBoth a brightfield and a fluorescence image was taken from each field of view. […] These criteria were determined empirically using a small test set of images and then applied to images for the analysis. […] The data for treated and control samples were quantified by computing the area percentage of CLF-labeled bile canaliculi within each field of view (FOV)."}, "[9]": {"system": "3D human spheroid hepatic cultures", "conditions": "compared with human chip IC50; cited from earlier work"}, "[10]": {"conditions": "human plasma; cited from earlier work"}, "[11]": {"system": "primary human hepatocytes and liver sinusoidal endothelial cells (LSECs)", "experiment": "High-content confocal imaging of microfluidic devices seeded with liver cells", "format": "cell-based", "conditions": "10 μM, six hours of exposure", "method": "Microfluidic devices were obtained from Emulate Inc. (USA) and are illustrated in FIG. 1A. The channels of the microfluidic devices were coated with a proprietary mixture of extracellular matrix and were incubated overnight at 37° C. Primary human cryopreserved hepatocytes sourced from ThermoFisher, as one example, were seeded in the top channel at a density of 3.5×10^6 cells/mL, and were left to form an attached monolayer at 37° C. in a humidified incubator with a 95%/5% ratio of air to CO2.\nTwenty-four hours after seeding, the hepatocyte monolayer was overlaid with Matrigel Matrix sourced from Corning, USA. Primary human cryopreserved liver sinusoidal endothelial cells, also known as LSECs, were seeded on the bottom channel of the microfluidic device at a density of 2 to 4×10^6 cells/mL in endothelial medium, also known as CSC medium or Base LSEC Culture Medium; CSC basal Medium plus Culture-Boost (2%), Cell Systems, and Pen/Strep (1%), Sigma. In some embodiments, endothelial cells are cultured in Complete LSEC Culture Medium, Base LSEC Culture Medium plus 10% FBS.\nMicrofluidic devices were inverted for 2 hours to allow attachment underneath the membrane, and then inverted back before being connected to a platform containing a pneumatic pump source from Emulate Inc. Media was flowed through both channels at a flow rate of 30 μL/hour and was refreshed every other day.\nThe effects of agents, such as staurosporine on cell phenotype was evaluated. Microfluidic devices were perfused with staurosporine (0 and 10 μM) for 6 hours at a flow rate of 30 μL/hour. A compound was also tested in the microfluidic devices seeded with liver cells. The microfluidic devices seeded with liver cells were perfused with the compound at the concentrations of 0.1 μM, 1 μM or 10 μM for 3 hours, after which the compound was removed from the media flow. The protocol was chosen as it was analogous to how the compound has been evaluated in vivo. […]"}}}
{"smiles": "CC(=O)Nc1ccc(O)cc1", "note": "[APAP, acetaminophen]", "values": [{"measurement": "albumin synthesis / secretion", "setting": "[1]; quadruple-cell human chips, 7 days", "result": "decreased"}, {"measurement": "APAP glucuronide in parenchymal and vascular channels", "setting": "[2]", "result": "significant amounts"}]}
{"smiles": "CN(C)CC(=O)N1CCC(c2ccc(NC(=O)c3nc(C#N)c[nH]3)c(C3=CCCCC3)c2)CC1", "note": "[JNJ compound]", "values": [{"measurement": "healthy subjects with elevation of alanine aminotransferase (ALT)", "setting": "[3]", "result": "3/12"}, {"measurement": "healthy subjects with elevation of aspartate aminotransferase (AST)", "setting": "[3]", "result": "7/12"}, {"measurement": "microscopic changes in the liver", "setting": "[4]", "result": "without any correlative microscopic changes"}, {"measurement": "transaminases", "setting": "[4]", "result": "Dose-related elevation"}, {"measurement": "microscopic changes in the liver", "setting": "[5]", "result": "without any correlative microscopic changes"}, {"measurement": "transaminases", "setting": "[5]", "result": "Dose-related elevation"}, {"measurement": "Kupffer cells (CD68-positive cells)", "setting": "Kupffer cells", "result": "decreased number"}, {"measurement": "interleukin 6 (IL-6) in the vascular channel", "setting": "[6]", "result": "dose-dependent decrease"}, {"measurement": "monocyte chemoattractant protein-1 (MCP-1) in the vascular channel", "setting": "[6]", "result": "dose-dependent decrease"}]}
{"smiles": "COc1ccccc1Oc1c(NS(=O)(=O)c2ccc(C(C)(C)C)cc2)nc(-c2ncccn2)nc1OCCO", "note": "[bosentan]", "values": [{"measurement": "IC50", "setting": "[1]; 72 h, dual-cell human chips, daily administration 1-100 μM, 3 days, read-out: IC50, decrease in albumin secretion", "result": 10, "unit": "µM"}, {"measurement": "IC50", "setting": "[7]", "result": 30, "unit": "µM"}, {"measurement": "IC50", "setting": "[8]", "result": "> 100", "unit": "µM"}, {"measurement": "intracellular accumulation of CLF", "setting": "BSEP", "result": "intracellular accumulation"}, {"measurement": "reduction in CLF efflux", "setting": "BSEP; co-treatment with CLF", "result": "> 50", "unit": "%"}, {"measurement": "IC50 in 3D human spheroid hepatic cultures relative to human chip", "setting": "[9]", "result": "more than 10 fold higher"}, {"measurement": "plasma concentration (Cmax) associated with DILI in humans", "setting": "[10]", "result": 7.4, "unit": "µM"}]}
{"smiles": "CN[C@@H]1C[C@H]2O[C@@](C)([C@@H]1OC)n1c3ccccc3c3c4c(c5c6ccccc6n2c5c31)C(=O)NC4", "note": "[staurosporine]", "values": [{"measurement": "LSECs (cell number)", "setting": "[11]", "result": "complete loss of LSECs"}, {"measurement": "apoptotic marker (CC3)", "setting": "[11]", "result": "marked increases"}, {"measurement": "hepatocyte cell number", "setting": "[11]", "result": "little if any effect"}]}
